Results published in patent US12559506B2, “Indazole based compounds and associated methods of use” (Arvinas Operations, Inc., priority 2021, dated 2026).

Molecular target: T1, LRRK2 (endogenous, HiBit tagged) (Homo sapiens, UniProt Q5S007)
T1 construct: endogenous in cells; host or cells: HEK293 cells with HiBit knock-in at the endogenous LRRK2 locus, stably expressing firefly luciferase
Test: Endogenous LRRK2 degradation assay, endogenous gene C-terminally HiBit-tagged in HEK293 cells (Nano-Glo Dual Luciferase)
Format: cell-based
Conditions: endogenous HiBit-tagged LRRK2 in HEK293 cells, 24 hours treatment; for Dmax: read-out: **Endogenous WT Dmax (%); for DC50: read-out: *Endogenous WT DC50
Method in brief: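 LRRK2-HiBit quantified via Nano-Glo Dual Luciferase in HEK293 knock-in cells co-expressing firefly luciferase, after 24 h exposure to compound (1 μM final top, 1:3, 11 points). Values normalised to DMSO median per plate and curve-fitted; Alamar Blue viability run alongside.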

T1 sequence (Q5S007 whole entry): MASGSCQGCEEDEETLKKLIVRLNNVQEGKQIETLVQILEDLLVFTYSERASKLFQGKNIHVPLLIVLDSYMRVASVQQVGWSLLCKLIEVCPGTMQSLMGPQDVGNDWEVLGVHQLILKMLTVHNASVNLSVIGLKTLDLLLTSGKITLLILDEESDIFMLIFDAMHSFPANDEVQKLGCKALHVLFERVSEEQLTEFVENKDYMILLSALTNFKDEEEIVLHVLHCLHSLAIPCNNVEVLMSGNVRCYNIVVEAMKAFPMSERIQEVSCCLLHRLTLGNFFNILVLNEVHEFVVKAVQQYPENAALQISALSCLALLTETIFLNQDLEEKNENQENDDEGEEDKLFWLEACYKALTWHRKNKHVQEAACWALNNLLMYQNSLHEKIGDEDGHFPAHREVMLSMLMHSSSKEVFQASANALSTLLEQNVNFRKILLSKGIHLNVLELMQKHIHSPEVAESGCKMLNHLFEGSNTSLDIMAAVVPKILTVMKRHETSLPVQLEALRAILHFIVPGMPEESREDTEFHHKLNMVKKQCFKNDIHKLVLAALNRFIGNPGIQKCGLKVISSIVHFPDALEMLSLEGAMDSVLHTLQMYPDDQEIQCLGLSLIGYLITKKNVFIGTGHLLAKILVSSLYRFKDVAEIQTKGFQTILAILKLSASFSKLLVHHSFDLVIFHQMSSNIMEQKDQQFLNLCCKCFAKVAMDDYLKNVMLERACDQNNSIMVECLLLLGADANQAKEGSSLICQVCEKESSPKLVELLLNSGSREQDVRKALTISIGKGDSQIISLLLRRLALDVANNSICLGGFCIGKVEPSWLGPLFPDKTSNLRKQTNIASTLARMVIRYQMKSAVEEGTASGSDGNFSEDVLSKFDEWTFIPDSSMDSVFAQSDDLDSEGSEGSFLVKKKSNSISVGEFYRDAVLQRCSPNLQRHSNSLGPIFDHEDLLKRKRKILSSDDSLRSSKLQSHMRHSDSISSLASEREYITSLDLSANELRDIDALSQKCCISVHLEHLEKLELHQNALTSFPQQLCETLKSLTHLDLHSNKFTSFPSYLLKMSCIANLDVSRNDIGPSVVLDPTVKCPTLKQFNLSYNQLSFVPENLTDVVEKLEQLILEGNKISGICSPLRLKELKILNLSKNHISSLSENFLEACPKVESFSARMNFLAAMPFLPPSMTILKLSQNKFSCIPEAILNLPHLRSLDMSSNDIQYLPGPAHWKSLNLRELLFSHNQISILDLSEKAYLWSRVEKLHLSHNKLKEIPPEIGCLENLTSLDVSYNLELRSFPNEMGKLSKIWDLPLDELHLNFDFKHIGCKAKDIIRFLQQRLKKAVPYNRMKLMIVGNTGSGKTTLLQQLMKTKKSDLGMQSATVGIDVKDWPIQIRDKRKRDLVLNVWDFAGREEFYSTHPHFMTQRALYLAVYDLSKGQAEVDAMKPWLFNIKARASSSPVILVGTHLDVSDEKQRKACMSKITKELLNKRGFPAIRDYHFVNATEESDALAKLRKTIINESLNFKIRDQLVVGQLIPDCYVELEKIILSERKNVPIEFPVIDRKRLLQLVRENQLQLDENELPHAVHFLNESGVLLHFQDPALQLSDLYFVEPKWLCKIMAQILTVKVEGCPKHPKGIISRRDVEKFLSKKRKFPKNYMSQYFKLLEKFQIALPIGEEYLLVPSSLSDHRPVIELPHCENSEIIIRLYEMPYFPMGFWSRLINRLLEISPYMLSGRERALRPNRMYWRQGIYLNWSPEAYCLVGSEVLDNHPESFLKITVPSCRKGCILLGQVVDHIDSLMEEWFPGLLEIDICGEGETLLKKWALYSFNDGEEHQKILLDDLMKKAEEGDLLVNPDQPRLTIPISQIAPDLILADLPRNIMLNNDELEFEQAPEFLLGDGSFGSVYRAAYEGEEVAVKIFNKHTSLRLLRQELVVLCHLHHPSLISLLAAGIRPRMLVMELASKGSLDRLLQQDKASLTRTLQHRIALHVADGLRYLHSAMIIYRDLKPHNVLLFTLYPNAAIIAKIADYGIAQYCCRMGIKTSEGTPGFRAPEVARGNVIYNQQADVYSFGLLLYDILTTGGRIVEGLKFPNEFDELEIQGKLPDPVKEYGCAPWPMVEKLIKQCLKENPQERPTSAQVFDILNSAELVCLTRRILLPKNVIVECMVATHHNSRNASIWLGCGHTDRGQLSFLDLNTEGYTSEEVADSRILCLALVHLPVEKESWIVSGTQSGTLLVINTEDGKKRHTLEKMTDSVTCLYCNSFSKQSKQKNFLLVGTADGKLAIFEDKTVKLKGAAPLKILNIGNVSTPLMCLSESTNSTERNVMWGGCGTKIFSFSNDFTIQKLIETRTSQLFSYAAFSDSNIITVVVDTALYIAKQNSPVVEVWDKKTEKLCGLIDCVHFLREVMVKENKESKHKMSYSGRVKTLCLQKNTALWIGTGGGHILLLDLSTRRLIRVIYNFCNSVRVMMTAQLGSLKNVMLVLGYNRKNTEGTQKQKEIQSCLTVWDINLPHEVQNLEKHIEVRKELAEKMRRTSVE

SMILES | Dmax [%] | DC50 [nM]
COc1c(N2CCC(O[C@H]3CCN(CC4CCN(c5cc(-c6n[nH]c7ccc(OC8(C)CC8)cc67)ncn5)CC4)C(C)(C)C3)CC2)ccc2c1CN(C1CCC(=O)NC1=O)C2=O (stereo partly drawn) [Compound 316, 3-[5-(4-{[(4S)-2,2-dimethyl-1-[(1-{6-[5-(1-methylcyclopropoxy)-1H-indazol-3-yl]pyrimidin-4-yl}piperidin-4-yl)methyl]piperidin-4-yl]oxy}piperidin-1-yl)-4-methoxy-1-oxo-2,3-dihydro-1H-isoindol-2-yl]piperidine-2,6-dione] | 50 to 70 | < 10
C[C@H]1CN(c2cc(-c3n[nH]c4ccc(OC5(C)CC5)cc34)ncn2)CCN1CCN1CCC2(CN(c3ccc4c(c3F)CN(C3CCC(=O)NC3=O)C4=O)C2)C(F)(F)C1 (stereo partly drawn) [Compound 317, 3-[5-(5,5-difluoro-7-{2-[(2S)-2-methyl-4-{6-[5-(1-methylcyclopropoxy)-1H-indazol-3-yl]pyrimidin-4-yl}piperazin-1-yl]ethyl}-2,7-diazaspiro[3.5]nonan-2-yl)-4-fluoro-1-oxo-2,3-dihydro-1H-isoindol-2-yl]piperidine-2,6-dione] | 50 to 70 | < 10
COc1c(N2CCC(C(C)(C)N3CCN(CC4CCN(c5cc(-c6n[nH]c7ccc(OC8(C)CC8)cc67)ncn5)CC4)CC3)CC2)ccc2c1CN(C1CCC(=O)NC1=O)C2=O (stereo not shown) [Compound 318, 3-{4-methoxy-5-[4-(2-{4-[(1-{6-[5-(1-methylcyclopropoxy)-1H-indazol-3-yl]pyrimidin-4-yl}piperidin-4-yl)methyl]piperazin-1-yl}propan-2-yl)piperidin-1-yl]-1-oxo-2,3-dihydro-1H-isoindol-2-yl}piperidine-2,6-dione] | ≥ 70 | < 10
COc1c(N2CCC(CN3CC[C@@H](OC4CCN(c5cc(-c6n[nH]c7ccc(OC8(C)CC8)cc67)ncn5)CC4)CC3(C)C)CC2)ccc2c1CN(C1CCC(=O)NC1=O)C2=O (stereo partly drawn) [Compound 319, 3-(5-(4-(((R)-2,2-dimethyl-4-((1-(6-(5-(1-methylcyclopropoxy)-1H-indazol-3-yl)pyrimidin-4-yl)piperidin-4-yl)oxy)piperidin-1-yl)methyl)piperidin-1-yl)-4-methoxy-1-oxoisoindolin-2-yl)piperidine-2,6-dione] | 50 to 70 | < 10
CC1(Oc2ccc3[nH]nc(-c4cc(N5CCC(C(C)(C)N6CCN(CC7CCN(c8ccc9c(c8F)CN(C8CCC(=O)NC8=O)C9=O)CC7)CC6)CC5)ncn4)c3c2)CC1 (stereo not shown) [Compound 320, 3-{4-fluoro-5-[4-({4-[2-(1-{6-[5-(1-methylcyclopropoxy)-1H-indazol-3-yl]pyrimidin-4-yl}piperidin-4-yl)propan-2-yl]piperazin-1-yl}methyl)piperidin-1-yl]-1-oxo-2,3-dihydro-1H-isoindol-2-yl}piperidine-2,6-dione] | 50 to 70 | < 10
CC1(Oc2ccc3[nH]nc(-c4cc(N5CCC(CN6CCN(C[C@@H]7CCN(c8ccc9c(c8F)CN(C8CCC(=O)NC8=O)C9=O)C7)CC6)CC5)ncn4)c3c2)CC1 (stereo partly drawn) [Compound 321, 3-{4-fluoro-5-[(3S)-3-({4-[(1-{6-[5-(1-methylcyclopropoxy)-1H-indazol-3-yl]pyrimidin-4-yl}piperidin-4-yl)methyl]piperazin-1-yl}methyl)pyrrolidin-1-yl]-1-oxo-2,3-dihydro-1H-isoindol-2-yl}piperidine-2,6-dione] | 50 to 70 | < 10
COc1c(N2CCC(O[C@@H]3CCN(CC4CCN(c5cc(-c6n[nH]c7ccc(OC8(C)CC8)cc67)ncn5)CC4)C(C)(C)C3)CC2)ccc2c1CN(C1CCC(=O)NC1=O)C2=O (stereo partly drawn) [Compound 322, 3-[5-(4-{[(4R)-2,2-dimethyl-1-[(1-{6-[5-(1-methylcyclopropoxy)-1H-indazol-3-yl]pyrimidin-4-yl}piperidin-4-yl)methyl]piperidin-4-yl]oxy}piperidin-1-yl)-4-methoxy-1-oxo-2,3-dihydro-1H-isoindol-2-yl]piperidine-2,6-dione] | 50 to 70 | < 10
CC1(Oc2ccc3n[nH]c(-c4cc(N5CCC(O[C@H]6C[C@H](N7CCC8(CC7)CN(c7ccc9c(c7F)CN(C7CCC(=O)NC7=O)C9=O)C8)C6)CC5)ncn4)c3c2)CC1 (stereo partly shown) [Compound 323, 3-(4-fluoro-1-oxo-5-{7-[(1r,3r)-3-[(1-{6-[5-(1-methylcyclopropoxy)-2H-indazol-3-yl]pyrimidin-4-yl}piperidin-4-yl)oxy]cyclobutyl]-2,7-diazaspiro[3.5]nonan-2-yl}-2,3-dihydro-1H-isoindol-2-yl)piperidine-2,6-dione] | 50 to 70 | < 10
COc1c(N2CCC(CN3CCN(CC4CCN(c5cc(-c6n[nH]c7cnc(OC8(C)CC8)cc67)ncn5)CC4)C[C@H]3C)CC2)ccc2c1CN(C1CCC(=O)NC1=O)C2=O (stereo partly drawn) [Compound 324, 3-[4-methoxy-5-(4-{[(2R)-2-methyl-4-[(1-{6-[5-(1-methylcyclopropoxy)-1H-pyrazolo[3,4-c]pyridin-3-yl]pyrimidin-4-yl}piperidin-4-yl)methyl]piperazin-1-yl]methyl}piperidin-1-yl)-1-oxo-2,3-dihydro-1H-isoindol-2-yl]piperidine-2,6-dione] |  | < 10
COc1c(N2CCC(CN3CC[C@H](OC4CCN(c5cc(-c6n[nH]c7ccc(OC8(C)CC8)cc67)ncn5)CC4)CC3(C)C)CC2)ccc2c1CN(C1CCC(=O)NC1=O)C2=O (stereo partly drawn) [Compound 325, 3-(5-(4-(((S)-2,2-dimethyl-4-((1-(6-(5-(1-methylcyclopropoxy)-1H-indazol-3-yl)pyrimidin-4-yl)piperidin-4-yl)oxy)piperidin-1-yl)methyl)piperidin-1-yl)-4-methoxy-1-oxoisoindolin-2-yl)piperidine-2,6-dione] | 50 to 70 | < 10
CC1(Oc2ccc3n[nH]c(-c4cc(N5CCC6(CC5)CN([C@H]5C[C@H](OC7CCN(c8ccc9c(c8F)CN(C8CCC(=O)NC8=O)C9=O)CC7)C5)C6)ncn4)c3c2)CC1 (stereo partly shown) [Compound 326, 3-(4-fluoro-1-oxo-5-{4-[(1r,3r)-3-(7-{6-[5-(1-methylcyclopropoxy)-2H-indazol-3-yl]pyrimidin-4-yl}-2,7-diazaspiro[3.5]nonan-2-yl)cyclobutoxy]piperidin-1-yl}-2,3-dihydro-1H-isoindol-2-yl)piperidine-2,6-dione] | 50 to 70 | < 10
CC1(Oc2ccc3[nH]nc(-c4cc(N5CC[C@@H](CN6CCN(CC7CCN(c8ccc9c(c8F)CN(C8CCC(=O)NC8=O)C9=O)CC7)CC6)C5)ncn4)c3c2)CC1 (stereo partly drawn) [Compound 327, 3-(4-fluoro-5-{4-[(4-{[(3S)-1-{6-[5-(1-methylcyclopropoxy)-1H-indazol-3-yl]pyrimidin-4-yl}pyrrolidin-3-yl]methyl}piperazin-1-yl)methyl]piperidin-1-yl}-1-oxo-2,3-dihydro-1H-isoindol-2-yl)piperidine-2,6-dione] | 50 to 70 | < 10
COc1c(N2CC[C@@H](CN3CCN(CC4CCN(c5cc(-c6n[nH]c7ccc(OC8(C)CC8)cc67)ncn5)CC4)CC3)C2)ccc2c1CN(C1CCC(=O)NC1=O)C2=O (stereo partly drawn) [Compound 328, 3-{4-methoxy-5-[(3S)-3-({4-[(1-{6-[5-(1-methylcyclopropoxy)-1H-indazol-3-yl]pyrimidin-4-yl}piperidin-4-yl)methyl]piperazin-1-yl}methyl)pyrrolidin-1-yl]-1-oxo-2,3-dihydro-1H-isoindol-2-yl}piperidine-2,6-dione] | 50 to 70 | < 10
